Laboratory results reported in PubChem BioAssay (NCI).
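Five concentrations, 48 hours, 96-well plates. Abbreviation: GI50, concentration required for 50% inhibition of growth. TGI: concentration producing complete growth inhibition.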

Columns and labels:
Experiment in all cases: inhibition of tumour cell growth, NCI panel, 48 h
786-0 renal = system: 786-0 renal
A498 renal = system: A498 renal
A549 NSCLC = system: A549 NSCLC
ACHN renal = system: ACHN renal
BT-549 breast = system: BT-549 breast
CAKI-1 renal = system: CAKI-1 renal
CCRF-CEM leukemia = system: CCRF-CEM leukemia
COLO 205 colon = system: COLO 205 colon
DU-145 prostate = system: DU-145 prostate
HCC-2998 colon = system: HCC-2998 colon
HCT-116 colon = system: HCT-116 colon
HCT-15 colon = system: HCT-15 colon
HL-60(TB) leukemia = system: HL-60(TB) leukemia
HOP-62 NSCLC = system: HOP-62 NSCLC
HOP-92 NSCLC = system: HOP-92 NSCLC
HS 578T breast = system: HS 578T breast
HT29 colon = system: HT29 colon
IGROV1 ovarian = system: IGROV1 ovarian
K-562 leukemia = system: K-562 leukemia
KM12 colon = system: KM12 colon
LOX IMVI melanoma = system: LOX IMVI melanoma
M14 melanoma = system: M14 melanoma
MALME-3M melanoma = system: MALME-3M melanoma
MCF7 breast = system: MCF7 breast
MDA-MB-231 breast = system: MDA-MB-231 breast
MDA-MB-435 = system: MDA-MB-435
MOLT-4 leukemia = system: MOLT-4 leukemia
NCI-H226 lung = system: NCI-H226 lung
NCI-H23 lung = system: NCI-H23 lung
NCI-H460 lung = system: NCI-H460 lung
NCI-H522 lung = system: NCI-H522 lung
NCI/ADR-RES ovarian = system: NCI/ADR-RES ovarian
OVCAR-3 ovarian = system: OVCAR-3 ovarian
OVCAR-4 ovarian = system: OVCAR-4 ovarian
OVCAR-5 ovarian = system: OVCAR-5 ovarian
OVCAR-8 ovarian = system: OVCAR-8 ovarian
PC-3 prostate = system: PC-3 prostate
RPMI-8226 leukemia = system: RPMI-8226 leukemia
RXF 393 renal = system: RXF 393 renal
SF-268 CNS = system: SF-268 CNS
SF-295 CNS = system: SF-295 CNS
SF-539 CNS = system: SF-539 CNS
SK-MEL-2 melanoma = system: SK-MEL-2 melanoma
SK-MEL-28 melanoma = system: SK-MEL-28 melanoma
SK-MEL-5 melanoma = system: SK-MEL-5 melanoma
SK-OV-3 ovarian = system: SK-OV-3 ovarian
SN12C renal = system: SN12C renal
SNB-19 CNS = system: SNB-19 CNS
SNB-75 CNS = system: SNB-75 CNS
SR leukemia = system: SR leukemia
SW-620 colon = system: SW-620 colon
T-47D breast = system: T-47D breast
TK-10 renal = system: TK-10 renal
U251 CNS = system: U251 CNS
UACC-257 melanoma = system: UACC-257 melanoma
UACC-62 melanoma = system: UACC-62 melanoma
UO-31 renal = system: UO-31 renal

SMILES: C[C@]12CC[C@@H]3c4ccc(O)cc4CC[C@H]3[C@@H]1CC[C@@H]2NS(=O)(=O)c1cccc(OC(F)(F)F)c1
- GI50 (786-0 renal): 1.92 µM
- TGI (786-0 renal): 3.93 µM
- GI50 (A498 renal): 1.23 µM
- TGI (A498 renal): 2.79 µM
- GI50 (A549 NSCLC): 2.7 µM
- TGI (A549 NSCLC): 8.24 µM
- GI50 (ACHN renal): 2.45 µM
- TGI (ACHN renal): 6.7 µM
- GI50 (BT-549 breast): 1.97 µM
- TGI (BT-549 breast): 3.66 µM
- GI50 (CAKI-1 renal): 2.11 µM
- TGI (CAKI-1 renal): 5.97 µM
- GI50 (CCRF-CEM leukemia): 3.16 µM
- TGI (CCRF-CEM leukemia): 12.3 µM
- GI50 (COLO 205 colon): 1.86 µM
- TGI (COLO 205 colon): 3.3 µM
- GI50 (DU-145 prostate): 3.83 µM
- TGI (DU-145 prostate): 12.1 µM
- GI50 (HCC-2998 colon): 3.16 µM
- TGI (HCC-2998 colon): 9.37 µM
- GI50 (HCT-116 colon): 1.84 µM
- TGI (HCT-116 colon): 3.53 µM
- GI50 (HCT-15 colon): 1.65 µM
- TGI (HCT-15 colon): 3.76 µM
- GI50 (HL-60(TB) leukemia): 2.18 µM
- TGI (HL-60(TB) leukemia): 7.04 µM
- GI50 (HOP-62 NSCLC): 1.99 µM
- TGI (HOP-62 NSCLC): 3.59 µM
- GI50 (HOP-92 NSCLC): 1.44 µM
- TGI (HOP-92 NSCLC): 3.95 µM
- GI50 (HS 578T breast): 2.62 µM
- TGI (HS 578T breast): 10.5 µM
- GI50 (HT29 colon): 2.14 µM
- TGI (HT29 colon): 3.94 µM
- GI50 (IGROV1 ovarian): 3.44 µM
- TGI (IGROV1 ovarian): 9.19 µM
- GI50 (K-562 leukemia): 3.35 µM
- TGI (K-562 leukemia): 10.8 µM
- GI50 (KM12 colon): 2.01 µM
- TGI (KM12 colon): 4.08 µM
- GI50 (LOX IMVI melanoma): 1.77 µM
- TGI (LOX IMVI melanoma): 3.17 µM
- GI50 (M14 melanoma): 2.2 µM
- TGI (M14 melanoma): 4.89 µM
- GI50 (MALME-3M melanoma): 1.99 µM
- TGI (MALME-3M melanoma): 4.67 µM
- GI50 (MCF7 breast): 1.47 µM
- TGI (MCF7 breast): 3.36 µM
- GI50 (MDA-MB-231 breast): 1.71 µM
- TGI (MDA-MB-231 breast): 3.86 µM
- GI50 (MDA-MB-435): 1.64 µM
- TGI (MDA-MB-435): 3.02 µM
- GI50 (MOLT-4 leukemia): 2.63 µM
- TGI (MOLT-4 leukemia): 12.1 µM
- GI50 (NCI-H226 lung): 1.69 µM
- TGI (NCI-H226 lung): 3.29 µM
- GI50 (NCI-H23 lung): 2.08 µM
- TGI (NCI-H23 lung): 4.87 µM
- GI50 (NCI-H460 lung): 1.89 µM
- TGI (NCI-H460 lung): 3.71 µM
- GI50 (NCI-H522 lung): 2.23 µM
- TGI (NCI-H522 lung): 5.42 µM
- GI50 (NCI/ADR-RES ovarian): 2.59 µM
- TGI (NCI/ADR-RES ovarian): 7.7 µM
- GI50 (OVCAR-3 ovarian): 2.04 µM
- TGI (OVCAR-3 ovarian): 3.99 µM
- GI50 (OVCAR-4 ovarian): 1.85 µM
- TGI (OVCAR-4 ovarian): 4.69 µM
- GI50 (OVCAR-5 ovarian): 1.73 µM
- TGI (OVCAR-5 ovarian): 3.2 µM
- GI50 (OVCAR-8 ovarian): 2.78 µM
- TGI (OVCAR-8 ovarian): 9.06 µM
- GI50 (PC-3 prostate): 2.13 µM
- TGI (PC-3 prostate): 8.18 µM
- GI50 (RPMI-8226 leukemia): 2.38 µM
- TGI (RPMI-8226 leukemia): 6.4 µM
- GI50 (RXF 393 renal): 1.64 µM
- TGI (RXF 393 renal): 3.6 µM
- GI50 (SF-268 CNS): 3.18 µM
- TGI (SF-268 CNS): 13.6 µM
- GI50 (SF-295 CNS): 1.58 µM
- TGI (SF-295 CNS): 3 µM
- GI50 (SF-539 CNS): 1.69 µM
- TGI (SF-539 CNS): 3.09 µM
- GI50 (SK-MEL-2 melanoma): 2.18 µM
- TGI (SK-MEL-2 melanoma): 4.39 µM
- GI50 (SK-MEL-28 melanoma): 1.76 µM
- TGI (SK-MEL-28 melanoma): 3.23 µM
- GI50 (SK-MEL-5 melanoma): 1.7 µM
- TGI (SK-MEL-5 melanoma): 3.32 µM
- GI50 (SK-OV-3 ovarian): 3.1 µM
- TGI (SK-OV-3 ovarian): 7.68 µM
- GI50 (SN12C renal): 1.65 µM
- TGI (SN12C renal): 3.26 µM
- GI50 (SNB-19 CNS): 3.46 µM
- TGI (SNB-19 CNS): 16.1 µM
- GI50 (SNB-75 CNS): 1.67 µM
- TGI (SNB-75 CNS): 4.32 µM
- GI50 (SR leukemia): 3.37 µM
- TGI (SR leukemia): 9.92 µM
- GI50 (SW-620 colon): 3.34 µM
- TGI (SW-620 colon): 12.6 µM
- GI50 (T-47D breast): 2.14 µM
- TGI (T-47D breast): 5.18 µM
- GI50 (TK-10 renal): 3.45 µM
- TGI (TK-10 renal): 10.1 µM
- GI50 (U251 CNS): 2.54 µM
- TGI (U251 CNS): 6.94 µM
- GI50 (UACC-257 melanoma): 2.16 µM
- TGI (UACC-257 melanoma): 6.5 µM
- GI50 (UACC-62 melanoma): 2.04 µM
- TGI (UACC-62 melanoma): 4.7 µM
- GI50 (UO-31 renal): 1.83 µM
- TGI (UO-31 renal): 5.46 µM
